We go through 15 molecules from US10030020B2, “Spirocycle compounds and methods of making and using same” (Abide Therapeutics, Inc., priority 2016, dated 2018).

Common to all, as to format: biochemical
For one test, the target named is MAGL (Mus musculus (Mouse), UniProt O35678). As to the kind of experiment: In vitro competitive activity-based protein profiling (mouse brain membrane fraction or cell lysates), MAGL band. To be noted: for inhibition at 1 µM: read-out: MAGL % Inh 1 μM (mouse); for IC50: competitive ABPP. On the procedure: (§1) In Vitro Competitive Activity-Based Protein Profiling.
Proteomes (mouse brain membrane fraction or cell lysates) (50 μL, 1.0 mg/mL total protein concentration) were preincubated with varying concentrations of inhibitors at 37° C. After 30 min, FP—Rh (1.0 μL, 50 μM in DMSO) was added and the mixture was incubated for another 30 min at 37° C. Reactions were quenched with SDS loading buffer (50 μL-4×) and run on SDS-PAGE.

For the next test, the target named is ABHD6 (Mus musculus (Mouse), UniProt Q8R2Y0). As to the kind of experiment: In vitro competitive activity-based protein profiling (mouse brain membrane fraction or cell lysates), ABHD6 band. To be noted: for inhibition at 1 µM: read-out: ABHD6 % Inh 1 μM (mouse); for IC50: competitive ABPP. On the procedure:
as §1
(§2) Proteomes (mouse brain membrane fraction or cell lysates) (50 μL, 1.0 mg/mL total protein concentration) were preincubated with varying concentrations of inhibitors at 37° C. After 30 min, FP—Rh (1.0 μL, 50 μM in DMSO) was added and the mixture was incubated for another 30 min at 37° C. Reactions were quenched with SDS loading buffer (50 μL-4×) and run on SDS-PAGE. Following gel imaging, serine hydrolase activity was determined by measuring fluorescent intensity of gel bands corresponding to MAGL, ABHD6 and FAAH using ImageJ 1.43u software.

The next test deals with FAAH (Mus musculus (Mouse), UniProt O08914). Nature of the test: In vitro competitive activity-based protein profiling (mouse brain membrane fraction or cell lysates), FAAH band. To be noted: for inhibition at 1 µM: read-out: FAAH % Inh 1 μM (mouse); for IC50: competitive ABPP. As for the experimental part:
as §1, §2

Like-named read-outs stand apart in the source and are kept apart here.

FAAH, sequence (O08914 whole entry): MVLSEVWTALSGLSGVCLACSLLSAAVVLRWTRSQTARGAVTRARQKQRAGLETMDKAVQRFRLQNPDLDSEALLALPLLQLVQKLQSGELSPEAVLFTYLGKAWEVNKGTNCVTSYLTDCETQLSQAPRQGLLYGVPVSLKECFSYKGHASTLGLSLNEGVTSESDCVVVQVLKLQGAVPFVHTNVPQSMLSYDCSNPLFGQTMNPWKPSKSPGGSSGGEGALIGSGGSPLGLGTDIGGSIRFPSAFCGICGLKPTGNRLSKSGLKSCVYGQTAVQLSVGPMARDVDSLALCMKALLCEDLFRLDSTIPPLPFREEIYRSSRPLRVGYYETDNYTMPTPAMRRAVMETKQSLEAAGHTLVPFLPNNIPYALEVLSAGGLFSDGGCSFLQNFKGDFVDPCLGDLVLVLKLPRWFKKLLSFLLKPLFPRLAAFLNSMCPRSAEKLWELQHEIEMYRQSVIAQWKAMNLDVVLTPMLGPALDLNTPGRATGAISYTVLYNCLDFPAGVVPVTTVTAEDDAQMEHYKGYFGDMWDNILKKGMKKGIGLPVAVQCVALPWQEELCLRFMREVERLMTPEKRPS
ABHD6, sequence (Q8R2Y0 whole entry): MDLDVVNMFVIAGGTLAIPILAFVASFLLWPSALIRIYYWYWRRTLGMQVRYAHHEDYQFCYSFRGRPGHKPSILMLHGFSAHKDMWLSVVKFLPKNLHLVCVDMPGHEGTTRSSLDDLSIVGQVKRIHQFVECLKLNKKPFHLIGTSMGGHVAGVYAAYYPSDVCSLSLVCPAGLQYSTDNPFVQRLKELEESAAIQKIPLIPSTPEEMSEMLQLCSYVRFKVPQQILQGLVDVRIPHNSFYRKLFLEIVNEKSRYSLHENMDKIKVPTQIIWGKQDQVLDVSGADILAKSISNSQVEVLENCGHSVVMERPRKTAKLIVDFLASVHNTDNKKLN
MAGL, sequence (O35678 whole entry): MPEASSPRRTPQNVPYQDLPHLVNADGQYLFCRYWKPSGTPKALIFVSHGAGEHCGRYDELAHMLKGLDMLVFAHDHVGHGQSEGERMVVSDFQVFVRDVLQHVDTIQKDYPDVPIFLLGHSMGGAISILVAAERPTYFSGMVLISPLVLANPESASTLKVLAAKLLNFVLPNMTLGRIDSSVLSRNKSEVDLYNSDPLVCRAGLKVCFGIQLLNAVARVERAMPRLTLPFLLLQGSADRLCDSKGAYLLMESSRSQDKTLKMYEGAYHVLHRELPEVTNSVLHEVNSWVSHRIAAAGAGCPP

As for `O=C(COc1cc(C(F)(F)F)ccc1CN1CCCC12CCN(C(=O)OC(C(F)(F)F)C(F)(F)F)CC2)N1CCCC1` [Example 167, 1,1,1,3,3,3-Hexafluoropropan-2-yl 1-(2-(2-oxo-2-(pyrrolidin-1-yl)ethoxy)-4-(trifluoromethyl)benzyl)-1,8-diazaspiro[4.5]decane-8-carboxylate], the inhibition at 1 µM is > 75% on MAGL (mouse proteome), 25 to 75% on ABHD6 (mouse proteome) and < 25% on FAAH (mouse proteome). The IC50 on MAGL (mouse proteome) was < 100 nM; at ABHD6 (mouse proteome), > 1000 nM; on FAAH (mouse proteome) it was > 1000 nM.

As to `O=C(O)c1ccc(CN2CCCC23CCN(C(=O)OC(C(F)(F)F)C(F)(F)F)CC3)cc1` [Example 250], the inhibition at 1 µM on MAGL (mouse) was > 75%; on ABHD6 (mouse) it was < 25%; at FAAH (mouse), < 25%.

As to `CCN1CCN(c2cc(Cl)ccc2CN2CCCC23CCN(C(=O)OC(C(F)(F)F)C(F)(F)F)CC3)CC1` [Example 98, 1,1,1,3,3,3-Hexafluoropropan-2-yl 1-(4-chloro-2-(4-ethylpiperazin-1-yl)benzyl)-1,8-diazaspiro[4.5]decane-8-carboxylate], the inhibition at 1 µM is > 75% on MAGL (mouse proteome), < 25% on ABHD6 (mouse proteome) and < 25% at FAAH (mouse proteome). For the same molecule, the IC50 on MAGL (mouse proteome) is 100 to 1000 nM; on ABHD6 (mouse proteome), > 1000 nM; at FAAH (mouse proteome), > 1000 nM.

With `O=C(OC(C(F)(F)F)C(F)(F)F)N1CCC2(CCCN2Cc2cc(N3CCN(C4CC4)CC3)cc(C(F)(F)F)c2)CC1` [Example 41, 1,1,1,3,3,3-Hexafluoropropan-2-yl 1-(3-(4-cyclopropylpiperazin-1-yl)-5-(trifluoromethyl)benzyl)-1,8-diazaspiro[4.5]decane-8-carboxylate], the inhibition at 1 µM is > 75% on MAGL (mouse proteome), < 25% at ABHD6 (mouse proteome) and < 25% on FAAH (mouse proteome). Besides, the values for the IC50 at MAGL (mouse proteome), on ABHD6 (mouse proteome) and on FAAH (mouse proteome) were < 100 nM, > 1000 nM and > 1000 nM, respectively.

`COc1cccc(CN2CCCC23CCN(C(=O)OC(C(F)(F)F)C(F)(F)F)CC3)c1` [Example 2, 1,1,1,3,3,3-Hexafluoropropan-2-yl 1-(3-methoxybenzyl)-1,8-diazaspiro[4.5]decane-8-carboxylate]: the inhibition at 1 µM at MAGL (mouse proteome) was > 75%; on ABHD6 (mouse proteome) it was < 25%; on FAAH (mouse proteome), < 25%. Besides, the 50% inhibitory concentration (IC50) on MAGL (mouse proteome) is 100 to 1000 nM; on ABHD6 (mouse proteome) it was > 1000 nM; at FAAH (mouse proteome), > 1000 nM.

On to `O=C(OC(C(F)(F)F)C(F)(F)F)N1CCC2(CCN(Cc3ccc(N4CCOCC4)c(C(F)(F)F)c3)C2)CC1` [Example 140, 1,1,1,3,3,3-Hexafluoropropan-2-yl 2-(4-morpholino-3-(trifluoromethyl)benzyl)-2,8-diazaspiro[4.5]decane-8-carboxylate], for which the inhibition at 1 µM is > 75% at MAGL (mouse proteome), ≥ 75% at ABHD6 (mouse proteome) and < 25% on FAAH (mouse proteome). Moreover, the IC50 on MAGL (mouse proteome) was < 100 nM; on ABHD6 (mouse proteome), 100 to 1000 nM; at FAAH (mouse proteome), > 1000 nM.

Turning to `O=C(O)C1CCCCN1c1cc(C(F)(F)F)ccc1CN1CCCC12CCN(C(=O)OC(C(F)(F)F)C(F)(F)F)CC2` (stereo not drawn) [Example 259], the inhibition at 1 µM at MAGL (mouse), on ABHD6 (mouse) and on FAAH (mouse) was < 25% in each case.

On to `CC(=O)N1CCc2cccc(CN3CCCC34CCN(C(=O)OC(C(F)(F)F)C(F)(F)F)CC4)c2C1` [Example 145, 1,1,1,3,3,3-Hexafluoropropan-2-yl 1-((2-acetyl-1,2,3,4-tetrahydroisoquinolin-8-yl)methyl)-1,8-diazaspiro[4.5]decane-8-carboxylate], for which the inhibition at 1 µM is > 75% on MAGL (mouse proteome), < 25% at ABHD6 (mouse proteome) and < 25% at FAAH (mouse proteome). The figures for the IC50 on MAGL (mouse proteome), on ABHD6 (mouse proteome) and on FAAH (mouse proteome) were < 100 nM, > 1000 nM and > 1000 nM, respectively.

With `Cc1c(CN2CCCC23CCN(C(=O)OC(C(F)(F)F)C(F)(F)F)CC3)cccc1N1CCOCC1` [Example 83, 1,1,1,3,3,3-Hexafluoropropan-2-yl 1-(2-methyl-3-morpholinobenzyl)-1,8-diazaspiro[4.5]decane-8-carboxylate], the inhibition at 1 µM was > 75% at MAGL (mouse proteome), < 25% at ABHD6 (mouse proteome) and < 25% at FAAH (mouse proteome). The results for the IC50 on MAGL (mouse proteome), on ABHD6 (mouse proteome) and on FAAH (mouse proteome) were < 100 nM, > 1000 nM and > 1000 nM, respectively.

`O=C(O)C1CCN(c2cc(CN3CCCC34CCN(C(=O)OC(C(F)(F)F)C(F)(F)F)CC4)cc(OC(F)(F)F)c2)CC1` [Example 207]: the inhibition at 1 µM at MAGL (mouse proteome) was > 75%; on ABHD6 (mouse proteome), < 25%; at FAAH (mouse proteome), < 25%.

In the case of `O=C(OC(C(F)(F)F)C(F)(F)F)N1CCC2(CCCN2Cc2ccc(Cl)cc2N2CCCCCC2)CC1` [Example 106, 1,1,1,3,3,3-Hexafluoropropan-2-yl 1-(2-(azepan-1-yl)-4-chlorobenzyl)-1,8-diazaspiro[4.5]decane-8-carboxylate], the inhibition at 1 µM at MAGL (mouse proteome) was > 75%; on ABHD6 (mouse proteome), < 25%; at FAAH (mouse proteome), < 25%. For the same molecule, the IC50 on MAGL (mouse proteome) was 100 to 1000 nM; on ABHD6 (mouse proteome), > 1000 nM; on FAAH (mouse proteome), > 1000 nM.

Consider `O=C(OC(C(F)(F)F)C(F)(F)F)N1CCC2(CCN(Cc3ccc(Cl)c(N4CCOCC4)c3)C2)CC1` [Example 154, 1,1,1,3,3,3-Hexafluoropropan-2-yl 2-(4-chloro-3-morpholinobenzyl)-2,8-diazaspiro[4.5]decane-8-carboxylate], for which the inhibition at 1 µM on MAGL (mouse proteome) is > 75%; on ABHD6 (mouse proteome), ≥ 75%; on FAAH (mouse proteome), < 25%. For the same molecule, the results for the 50% inhibitory concentration (IC50) on MAGL (mouse proteome), at ABHD6 (mouse proteome) and at FAAH (mouse proteome) were < 100 nM, 100 to 1000 nM and > 1000 nM, respectively.

As for `CS(=O)(=O)N1CCCc2cccc(CN3CCCC34CCN(C(=O)OC(C(F)(F)F)C(F)(F)F)CC4)c21` [Example 143, 1,1,1,3,3,3-Hexafluoropropan-2-yl 1-((1-methanesulfonyl-1,2,3,4-tetrahydroquinolin-8-yl)methyl)-1,8-diazaspiro[4.5]decane-8-carboxylate], the figures for the inhibition at 1 µM on MAGL (mouse proteome), on ABHD6 (mouse proteome) and on FAAH (mouse proteome) were > 75%, < 25% and < 25%, respectively. The IC50 on MAGL (mouse proteome) is < 100 nM; at ABHD6 (mouse proteome), > 1000 nM; on FAAH (mouse proteome) it was > 1000 nM.

Regarding `O=C(OC(C(F)(F)F)C(F)(F)F)N1CCC2(CCCN2Cc2ccc(OCCN3CCCCC3)c(Cl)c2)CC1` [Example 15, 1,1,1,3,3,3-Hexafluoropropan-2-yl 1-(3-chloro-4-(2-(piperidin-1-yl)ethoxy)benzyl)-1,8-diazaspiro[4.5]decane-8-carboxylate], the inhibition at 1 µM was > 75% on MAGL (mouse proteome), < 25% at ABHD6 (mouse proteome) and < 25% at FAAH (mouse proteome). Moreover, the figures for the IC50 at MAGL (mouse proteome), at ABHD6 (mouse proteome) and on FAAH (mouse proteome) were 100 to 1000 nM, > 1000 nM and > 1000 nM, respectively.

With `CS(=O)(=O)N1CCN(c2cc(Cl)cc(CN3CCCC34CCN(C(=O)OC(C(F)(F)F)C(F)(F)F)CC4)c2)CC1` [Example 40, 1,1,1,3,3,3-Hexafluoropropan-2-yl 1-(3-chloro-5-(4-(methylsulfonyl)piperazin-1-yl)benzyl)-1,8-diazaspiro[4.5]decane-8-carboxylate], the inhibition at 1 µM is > 75% on MAGL (mouse proteome), < 25% on ABHD6 (mouse proteome) and < 25% at FAAH (mouse proteome). Also, the results for the IC50 at MAGL (mouse proteome), on ABHD6 (mouse proteome) and at FAAH (mouse proteome) were < 100 nM, > 1000 nM and > 1000 nM, respectively.

Broadly, the IC50 is the midpoint of a concentration-inhibition curve. High values mean weaker potency, low ones greater potency.
